From patent US12077503B2, “Substituted cyclic amides and their use as herbicides” (FMC CORPORATION, priority 2015, dated 2024)

Columns and labels:
Assay type in all cases: in vivo
Kochia (Kochia scoparia) [1] = assay: Test A preemergence
Method in brief: (§1)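 Compounds were formulated in a non-phytotoxic solvent mixture with surfactant and applied as a preemergence directed soil spray after seeding, or sprayed postemergence over plants 2 to 10 cm tall at the one- to two-leaf stage. Evaluation after about 10 d compared treated with untreated controls, using a scale from 0 (no effect) to 100 (complete control).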

[2] = test system: pigweed (Amaranthus retroflexus); assay: Test A preemergence
[3] = test system: barnyardgrass (Echinochloa crus-galli); assay: Test A preemergence
Method in brief: as §1

[4] = test system: ragweed (common ragweed, Ambrosia elatior); assay: Test A preemergence
Method in brief: as §1

[5] = test system: giant foxtail (Setaria faberii); assay: Test A preemergence
Method in brief: as §1

[6] = test system: ryegrass, Italian (Italian ryegrass, Lolium multiflorum); assay: Test A preemergence
Method in brief: as §1

Kochia (Kochia scoparia) [7] = assay: Test A postemergence
Method in brief: as §1

[8] = test system: Galium (catchweed bedstraw, Galium aparine); assay: Test A postemergence
Method in brief: as §1

[9] = test system: pigweed (Amaranthus retroflexus); assay: Test A postemergence
Method in brief: as §1

[10] = test system: barnyardgrass (Echinochloa crus-galli); assay: Test A postemergence
Method in brief: as §1

[11] = test system: blackgrass (Alopecurus myosuroides); assay: Test A postemergence
Method in brief: as §1

corn (Zea mays) = assay: Test A postemergence
Method in brief: as §1

[12] = test system: ragweed (common ragweed, Ambrosia elatior); assay: Test A postemergence
Method in brief: as §1

[13] = test system: giant foxtail (Setaria faberii); assay: Test A postemergence
Method in brief: as §1

[14] = test system: ryegrass, Italian (Italian ryegrass, Lolium multiflorum); assay: Test A postemergence
Method in brief: as §1

[15] = test system: wheat (Triticum aestivum); assay: Test A postemergence
Method in brief: as §1

rice (Oryra sativa) = assay: Test B flooded paddy test; settings: 250 g ai/ha, Flood, 0 to 100 scale where 0 is no effect and 100 is complete control
Method in brief: (§2)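 2-leaf plants; pots flooded 3 cm over soil; cpd added to paddy water; depth held; greenhouse 13–15 d; visual rating vs controls, 0 = no effect, 100 = complete control.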

[16] = test system: barnyardgrass (Echinochloa crus-galli); assay: Test B flooded paddy test; settings: 250 g ai/ha, Flood, 0 to 100 scale where 0 is no effect and 100 is complete control
Method in brief: as §2

[17] = test system: sedge, umbrella (small-flower umbrella sedge, Cyperus difformis); assay: Test B flooded paddy test; settings: 250 g ai/ha, Flood, 0 to 100 scale where 0 is no effect and 100 is complete control
Method in brief: as §2

[18] = test system: ducksalad (Heteranthera limosa); assay: Test B flooded paddy test; settings: 250 g ai/ha, Flood, 0 to 100 scale where 0 is no effect and 100 is complete control
Method in brief: as §2

[19] = 125 g ai/ha, preemergence, 0 to 100 scale (0 no effect, 100 complete control)
[20] = Preemergence, 500 g ai/ha, visual injury approx. 10 d
[21] = 125 g ai/ha, postemergence, visual injury rating on 0 to 100 scale (0 no effect, 100 complete control), approx. 10 d
[22] = 500 g ai/ha, postemergence, 0 to 100 scale, 0 no effect, 100 complete control

SMILES: CON1CC[C@H](c2ccc(C(F)(F)F)cc2)[C@@H](C(=O)Nc2ccc(F)c(F)c2F)C1=O [Compound 1107]
- pest or weed control at 31 g/ha (Kochia (Kochia scoparia) [1]; Bassia scoparia, pre-emergence, 240 h, 31 g ai/ha, Preemergence, 0 to 100 scale where 0 is no effect and 100 is complete control, read-out: Kochia plant response rating): 0%
- pest or weed control at 125 g/ha (Kochia (Kochia scoparia) [1]; Bassia scoparia, pre-emergence, 240 h, 125 g ai/ha, preemergence, 0 to 100 scale where 0 is no effect and 100 is complete control, approx. 10 d, read-out: Kochia plant response rating): 0%
- pest or weed control at 31 g/ha ([2]; Amaranthus retroflexus, pre-emergence, 240 h, 31 g ai/ha, Preemergence, 0 to 100 scale where 0 is no effect and 100 is complete control, read-out: Pigweed plant response rating): 0%
- pest or weed control at 125 g/ha ([2]; Amaranthus retroflexus, pre-emergence, 240 h, 125 g ai/ha, preemergence, 0 to 100 scale where 0 is no effect and 100 is complete control, approx. 10 d, read-out: Pigweed plant response rating): 0%
- pest or weed control at 31 g/ha ([3]; Echinochloa crus-galli, pre-emergence, 240 h, 31 g ai/ha, Preemergence, 0 to 100 scale where 0 is no effect and 100 is complete control, read-out: Barnyardgrass plant response rating): 0%
- pest or weed control at 125 g/ha ([3]; Echinochloa crus-galli, pre-emergence, 240 h, 125 g ai/ha, preemergence, 0 to 100 scale where 0 is no effect and 100 is complete control, approx. 10 d, read-out: Barnyardgrass plant response rating): 0%
- pest or weed control at 31 g/ha ([4]; Ambrosia artemisiifolia, pre-emergence, 240 h, 31 g ai/ha, Preemergence, 0 to 100 scale where 0 is no effect and 100 is complete control, read-out: Ragweed plant response rating): 0%
- pest or weed control at 125 g/ha ([4]; Ambrosia artemisiifolia, pre-emergence, 240 h, 125 g ai/ha, preemergence, 0 to 100 scale where 0 is no effect and 100 is complete control, approx. 10 d, read-out: Ragweed plant response rating): 0%
- pest or weed control at 31 g/ha ([5]; Setaria faberi, pre-emergence, 240 h, 31 g ai/ha, Preemergence, 0 to 100 scale where 0 is no effect and 100 is complete control, read-out: Foxtail, Giant plant response rating): 0%
- pest or weed control at 125 g/ha ([5]; Setaria faberi, pre-emergence, 240 h, 125 g ai/ha, preemergence, 0 to 100 scale where 0 is no effect and 100 is complete control, approx. 10 d, read-out: Foxtail, Giant plant response rating): 0%
- pest or weed control at 31 g/ha ([6]; Lolium multiflorum, pre-emergence, 240 h, 31 g ai/ha, Preemergence, 0 to 100 scale where 0 is no effect and 100 is complete control, read-out: Ryegrass, Italian plant response rating): 0%
- pest or weed control at 125 g/ha ([6]; Lolium multiflorum, pre-emergence, 240 h, 125 g ai/ha, preemergence, 0 to 100 scale where 0 is no effect and 100 is complete control, approx. 10 d, read-out: Ryegrass, Italian plant response rating): 0%
- pest or weed control at 125 g/ha (Kochia (Kochia scoparia) [7]; Bassia scoparia, post-emergence, 240 h, 125 g ai/ha, postemergence, visual injury on 0 to 100 scale (0 no effect, 100 complete control), approx. 10 d, read-out: Kochia plant response rating): 0%
- pest or weed control at 31 g/ha (Kochia (Kochia scoparia) [7]; Bassia scoparia, post-emergence, 240 h, Postemergence, 31 g ai/ha, visual injury after approx. 10 d, 0 to 100 scale, 0 no effect, 100 complete control, read-out: Plant response rating, Kochia): 0%
- pest or weed control at 125 g/ha ([8]; Galium, post-emergence, 240 h, 125 g ai/ha, postemergence, visual injury on 0 to 100 scale (0 no effect, 100 complete control), approx. 10 d, read-out: Galium plant response rating): 0%
- pest or weed control at 31 g/ha ([8]; Galium, post-emergence, 240 h, Postemergence, 31 g ai/ha, visual injury after approx. 10 d, 0 to 100 scale, 0 no effect, 100 complete control, read-out: Plant response rating, Galium): 0%
- pest or weed control at 125 g/ha ([9]; Amaranthus retroflexus, post-emergence, 240 h, 125 g ai/ha, postemergence, visual injury on 0 to 100 scale (0 no effect, 100 complete control), approx. 10 d, read-out: Pigweed plant response rating): 0%
- pest or weed control at 31 g/ha ([9]; Amaranthus retroflexus, post-emergence, 240 h, Postemergence, 31 g ai/ha, visual injury after approx. 10 d, 0 to 100 scale, 0 no effect, 100 complete control, read-out: Plant response rating, Pigweed): 0%
- pest or weed control at 125 g/ha ([10]; Echinochloa crus-galli, post-emergence, 240 h, 125 g ai/ha, postemergence, visual injury on 0 to 100 scale (0 no effect, 100 complete control), approx. 10 d, read-out: Barnyardgrass plant response rating): 0%
- pest or weed control at 31 g/ha ([10]; Echinochloa crus-galli, post-emergence, 240 h, Postemergence, 31 g ai/ha, visual injury after approx. 10 d, 0 to 100 scale, 0 no effect, 100 complete control, read-out: Plant response rating, Barnyardgrass): 0%
- pest or weed control at 125 g/ha ([11]; Alopecurus myosuroides, post-emergence, 240 h, 125 g ai/ha, postemergence, visual injury on 0 to 100 scale (0 no effect, 100 complete control), approx. 10 d, read-out: Blackgrass plant response rating): 0%
- pest or weed control at 31 g/ha ([11]; Alopecurus myosuroides, post-emergence, 240 h, Postemergence, 31 g ai/ha, visual injury after approx. 10 d, 0 to 100 scale, 0 no effect, 100 complete control, read-out: Plant response rating, Blackgrass): 0%
- plant injury at 125 g/ha (corn (Zea mays); Zea mays, post-emergence, 240 h, 125 g ai/ha, postemergence, visual injury on 0 to 100 scale (0 no effect, 100 complete control), approx. 10 d, read-out: Corn plant response rating): 0%
- Corn plant response rating (crop injury, 0 = no effect, 100 = complete kill) at 31 g/ha (corn (Zea mays); Zea mays, post-emergence, 240 h, Postemergence, 31 g ai/ha, visual injury after approx. 10 d, 0 to 100 scale, 0 no effect, 100 complete control): 0%
- pest or weed control at 125 g/ha ([12]; Ambrosia artemisiifolia, post-emergence, 240 h, 125 g ai/ha, postemergence, visual injury on 0 to 100 scale (0 no effect, 100 complete control), approx. 10 d, read-out: Ragweed plant response rating): 0%
- pest or weed control at 31 g/ha ([12]; Ambrosia artemisiifolia, post-emergence, 240 h, Postemergence, 31 g ai/ha, visual injury after approx. 10 d, 0 to 100 scale, 0 no effect, 100 complete control, read-out: Plant response rating, Ragweed): 0%
- pest or weed control at 125 g/ha ([13]; Setaria faberi, post-emergence, 240 h, 125 g ai/ha, postemergence, visual injury on 0 to 100 scale (0 no effect, 100 complete control), approx. 10 d, read-out: Foxtail, Giant plant response rating): 0%
- pest or weed control at 31 g/ha ([13]; Setaria faberi, post-emergence, 240 h, Postemergence, 31 g ai/ha, visual injury after approx. 10 d, 0 to 100 scale, 0 no effect, 100 complete control, read-out: Plant response rating, Foxtail, Giant): 0%
- pest or weed control at 125 g/ha ([14]; Lolium multiflorum, post-emergence, 240 h, 125 g ai/ha, postemergence, visual injury on 0 to 100 scale (0 no effect, 100 complete control), approx. 10 d, read-out: Ryegrass, Italian plant response rating): 0%
- pest or weed control at 31 g/ha ([14]; Lolium multiflorum, post-emergence, 240 h, Postemergence, 31 g ai/ha, visual injury after approx. 10 d, 0 to 100 scale, 0 no effect, 100 complete control, read-out: Plant response rating, Ryegrass, Italian): 0%
- plant injury at 125 g/ha ([15]; Triticum aestivum, post-emergence, 240 h, 125 g ai/ha, postemergence, visual injury on 0 to 100 scale (0 no effect, 100 complete control), approx. 10 d, read-out: Wheat plant response rating): 0%
- plant injury at 31 g/ha ([15]; Triticum aestivum, post-emergence, 240 h, Postemergence, 31 g ai/ha, visual injury after approx. 10 d, 0 to 100 scale, 0 no effect, 100 complete control, read-out: Plant response rating, Wheat): 0%
- pest or weed control at 250 g/ha (rice (Oryra sativa); Oryza sativa, read-out: Rice plant response rating): 0%
- pest or weed control at 250 g/ha ([16]; Echinochloa crus-galli, read-out: Barnyardgrass plant response rating): 0%
- pest or weed control at 250 g/ha ([17]; Cyperus difformis, read-out: Sedge, Umbrella plant response rating): 0%
- pest or weed control at 250 g/ha ([18]; Heteranthera limosa, read-out: Ducksalad plant response rating): 80%

SMILES: Cc1ccc(C2CN(C)C(=O)C2C(=O)Nc2ccccc2F)cc1F (stereo not drawn) [Compound 465]
- Plant response rating, Kochia (Kochia (Kochia scoparia) [1]; [19]): 80
- Kochia plant response rating (0 to 100 scale, 0 is no effect, 100 is complete control) (Kochia (Kochia scoparia) [1]; [20]): 80
- Plant response rating, Pigweed [2, 19]: 50
- Pigweed plant response rating (0 to 100 scale, 0 is no effect, 100 is complete control) [2, 20]: 70
- Plant response rating, Barnyardgrass [3, 19]: 90
- Barnyardgrass plant response rating (0 to 100 scale, 0 is no effect, 100 is complete control) [3, 20]: 100
- Plant response rating, Ragweed [4, 19]: 40
- Ragweed plant response rating (0 to 100 scale, 0 is no effect, 100 is complete control) [4, 20]: 70
- Plant response rating, Foxtail, Giant [5, 19]: 100
- Foxtail, Giant plant response rating (0 to 100 scale, 0 is no effect, 100 is complete control) [5, 20]: 100
- Plant response rating, Ryegrass, Italian [6, 19]: 70
- Ryegrass, Italian plant response rating (0 to 100 scale, 0 is no effect, 100 is complete control) [6, 20]: 70
- Kochia plant response rating (Kochia (Kochia scoparia) [7]; [21]): 50
- Plant response rating, Kochia (Kochia (Kochia scoparia) [7]; [22]): 60
- Galium plant response rating [8, 21]: 60
- Plant response rating, Galium [8, 22]: 60
- Pigweed plant response rating [9, 21]: 0
- Plant response rating, Pigweed [9, 22]: 20
- Barnyardgrass plant response rating [10, 21]: 90
- Plant response rating, Barnyardgrass [10, 22]: 90
- Blackgrass plant response rating [11, 21]: 40
- Plant response rating, Blackgrass [11, 22]: 70
- Corn plant response rating (corn (Zea mays); [21]): 80
- Plant response rating, Corn (corn (Zea mays); [22]): 90
- Ragweed plant response rating [12, 21]: 0
- Plant response rating, Ragweed [12, 22]: 30
- Foxtail, Giant plant response rating [13, 21]: 90
- Plant response rating, Foxtail, Giant [13, 22]: 90
- Ryegrass, Italian plant response rating [14, 21]: 60
- Plant response rating, Ryegrass, Italian [14, 22]: 70
- Wheat plant response rating [15, 21]: 60
- Plant response rating, Wheat [15, 22]: 70
- Plant response rating, Rice (rice (Oryra sativa); 13 to 15 d): 0
- Plant response rating, Barnyardgrass ([16]; 13 to 15 d): 80
- Plant response rating, Sedge, Umbrella ([17]; 13 to 15 d): 0
- Plant response rating, Ducksalad ([18]; 13 to 15 d): 100
